This is an account of results in ChEMBL document CHEMBL4418495, “Entpd5 inhibitors” (2012).

The source made the active and inactive calls. The rule behind the calls is not given here.

Assay [1] addresses T1, Nucleoside diphosphate phosphatase ENTPD5 (Homo sapiens) (UniProt O75356).
T1 sequence (whole entry): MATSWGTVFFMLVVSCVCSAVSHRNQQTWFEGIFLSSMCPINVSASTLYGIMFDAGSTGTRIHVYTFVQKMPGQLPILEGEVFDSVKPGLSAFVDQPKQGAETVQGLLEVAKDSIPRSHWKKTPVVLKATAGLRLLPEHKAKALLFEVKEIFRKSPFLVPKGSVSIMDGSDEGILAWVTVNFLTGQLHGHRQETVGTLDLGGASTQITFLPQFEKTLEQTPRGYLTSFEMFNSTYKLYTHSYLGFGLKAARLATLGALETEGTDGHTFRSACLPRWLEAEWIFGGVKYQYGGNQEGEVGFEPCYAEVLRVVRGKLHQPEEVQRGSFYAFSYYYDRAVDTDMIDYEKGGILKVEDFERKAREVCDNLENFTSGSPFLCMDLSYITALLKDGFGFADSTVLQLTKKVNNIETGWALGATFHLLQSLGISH
The assay is described as follows: Inhibition of human recombinant ENTPD5 expressed in insect cells assessed as reduction in UDP hydrolysis at 1 uM incubated for 1 hr in presence of UMP, GTP and ATP by Escherichia coli UMP kinase pyrH catalyzed UMP phosphorylation coupled luciferase assay.

The target in assay [2] is T1, Nucleoside diphosphate phosphatase ENTPD5 (Homo sapiens). The assay is described as follows: Inhibition of human recombinant ENTPD5 expressed in insect cells assessed as reduction in UDP hydrolysis up to 10 uM incubated for 1 hr in presence of UMP, GTP and ATP by Escherichia coli UMP kinase pyrH catalyzed UMP phosphorylation coupled luciferase assay.
The target in assay [3] is T2, Uridylate kinase (Escherichia coli (strain K12)) (UniProt P0A7E9).
T2 sequence (whole entry): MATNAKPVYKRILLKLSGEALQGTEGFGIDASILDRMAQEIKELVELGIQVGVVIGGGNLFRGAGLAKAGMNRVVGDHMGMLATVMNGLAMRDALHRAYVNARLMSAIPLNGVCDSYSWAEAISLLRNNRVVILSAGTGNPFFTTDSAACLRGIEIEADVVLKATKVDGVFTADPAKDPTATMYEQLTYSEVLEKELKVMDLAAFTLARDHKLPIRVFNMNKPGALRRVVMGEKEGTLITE
The assay is described as follows: Inhibition of recombinant Escherichia coli UMP kinase pyrH catalyzed UMP phosphorylation in presence of GTP and ATP incubated for 1 hr by luminescence based assay.

The target in assay [4] is T1, Nucleoside diphosphate phosphatase ENTPD5 (Homo sapiens). The assay is described as follows: Inhibition of human recombinant ENTPD5 expressed in insect cells assessed as reduction in reduction in UDP hydrolysis by measuring inorganic phosphate release incubated for 1 hr by malachite green based assay.

As for `O=S(=O)(c1cccc2cccnc12)N(CCc1csc2nc(-c3ccc4ccccc4c3)cn12)Cc1ccco1`, the inhibition entry in assay [1] and in assay [4] was “Active” in each case. Besides, in assay [2], the inhibition entry was “Dose-dependent effect”. The inhibition result in assay [3] is “inactive”.

With `O=C1NC(=S)N(c2ccccc2F)C(=O)/C1=C/c1cccn1-c1ccc(Cl)cc1`, the inhibition result in assay [1] and in assay [4] was “Active” each time. For the same compound, the inhibition result in assay [2] is “Dose-dependent effect”. In addition, the inhibition entry in assay [3] is “inactive”.

Consider `O=C1NC(=S)NC(=O)C1=Cc1cn(-c2ccccc2)nc1-c1ccccc1`, for which the inhibition entry in assay [1] and in assay [4] was “Active” throughout. Besides, the inhibition result in assay [2] is “Dose-dependent effect”. In assay [3], the inhibition entry is “inactive”.

Regarding `O=[N+]([O-])c1ccc(NCc2ccco2)c2nonc12`, the inhibition entry in assay [1] and in assay [4] was “Active” throughout. Moreover, the inhibition result in assay [2] is “Dose-dependent effect”. In addition, the inhibition result in assay [3] is “inactive”.

Consider `COc1cc(/C=C2/SC(=S)N(C3CCCCC3)C2=O)cc(Cl)c1O`, for which the inhibition result in assay [1] and in assay [4] was “Active” throughout. In assay [2], the inhibition entry is “Dose-dependent effect”. Further, in assay [3], the inhibition entry is “inactive”.

In the case of `O=C(C(c1ccccc1)c1ccccc1)N(CCc1csc2nc(-c3ccc4ccccc4c3)cn12)Cc1ccco1`, the inhibition entry in assay [1] and in assay [4] was “Active” throughout. For the same compound, the inhibition result in assay [2] was “Dose-dependent effect”. For the same compound, the inhibition result in assay [3] is “inactive”.

On to `O=C(Nc1c[nH]c(=O)[nH]c1=O)c1cccc(N2C(=O)c3ccc([N+](=O)[O-])cc3C2=O)c1`, for which the inhibition result in assay [1] and in assay [4] was “Active” throughout. The inhibition result in assay [2] is “Dose-dependent effect”. Moreover, the inhibition result in assay [3] was “inactive”.

On to `N#CC(c1ccc(Cl)cc1)c1c(Cl)cc(-n2ncc(=O)[nH]c2=O)cc1Cl` (centres undefined), for which the inhibition entry in assay [1] and in assay [4] was “Active” each time. For the same compound, the inhibition result in assay [2] is “Dose-dependent effect”. Besides, in assay [3], the inhibition result is “inactive”.

For the compound `COc1cccc(OCCn2cc(/C=C3/C(=N)N4N=C(C(C)C)SC4=NC3=O)c3ccccc32)c1`, the inhibition result in assay [1] and in assay [4] was “Active” each time. In assay [2], the inhibition result was “Dose-dependent effect”. Also, the inhibition entry in assay [3] is “inactive”.

As for `O=C(CCl)N(CC(=O)N1c2ccccc2-n2cccc2C1c1ccc(Cl)cc1)C1CC1` (centres undefined), the inhibition entry in assay [1] and in assay [4] was “Active” throughout. The inhibition entry in assay [2] is “Dose-dependent effect”. The inhibition result in assay [3] is “inactive”.

In the case of `O=C(CSc1nc2c([nH]c3ccccc32)c(=O)n1-c1ccccc1)N1CCN(c2ccccc2)CC1`, the inhibition entry in assay [1] and in assay [4] was “Active” in each case. Moreover, the inhibition result in assay [2] is “Dose-dependent effect”. The inhibition result in assay [3] was “inactive”.

As for `O=C1C=CC(=O)c2c1ccc1c2ccc2ccccc21`, the inhibition result in assay [1] and in assay [4] was “Active” in each case. Moreover, in assay [2], the inhibition result was “Dose-dependent effect”. Further, in assay [3], the inhibition result was “inactive”.

As for `S=C(Nc1ccccc1)Nc1ccc2nc(-c3ccco3)c(-c3ccco3)nc2c1`, the inhibition result in assay [1] and in assay [4] was “Active” in each case. The inhibition entry in assay [2] is “Dose-dependent effect”. For the same compound, in assay [3], the inhibition entry was “inactive”.

On to `CCN1C(=O)c2ccc(-c3ccc(C=C4C(=O)NC(=S)NC4=O)o3)cc2C1=O`, for which the inhibition result in assay [1] and in assay [4] was “Active” in each case. Besides, the inhibition result in assay [2] was “Dose-dependent effect”. The inhibition entry in assay [3] is “inactive”.

Consider `CCc1ccc(NC2=NC(=O)/C(=C/c3cc(Cl)c(OCC(=O)O)c(Cl)c3)S2)cc1`, for which the inhibition entry in assay [1] and in assay [4] was “Active” in each case. In addition, in assay [2], the inhibition entry was “Dose-dependent effect”. Also, the inhibition result in assay [3] is “inactive”.

For `O=C(Cn1cc(/C=C2\C(=O)NC(=O)N(Cc3ccccc3)C2=O)c2ccccc21)NCc1ccccc1`, the inhibition entry in assay [1] and in assay [4] was “Active” in each case. Moreover, the inhibition result in assay [2] is “Dose-dependent effect”. The inhibition entry in assay [3] was “inactive”.

As to `O=S(=O)(c1cccc(C(F)(F)F)c1)N(CCc1csc2nc(-c3ccc4ccccc4c3)cn12)Cc1ccco1`, the inhibition result in assay [1] and in assay [4] was “Active” throughout. The inhibition result in assay [2] is “Dose-dependent effect”. Further, the inhibition result in assay [3] is “inactive”.

Turning to `O=C(/C=C/c1ccco1)/C=C/c1ccc(-c2ccc(Br)cc2)o1`, the inhibition entry in assay [1] and in assay [4] was “Active” throughout. The inhibition entry in assay [2] was “Dose-dependent effect”. Besides, the inhibition result in assay [3] is “inactive”.

Turning to `CN1C(=O)c2ccc(NC(=S)NC(=O)CC34CC5CC(CC(C5)C3)C4)cc2C1=O`, the inhibition result in assay [1] and in assay [4] was “Active” throughout. Besides, in assay [2], the inhibition result was “Dose-dependent effect”. In addition, the inhibition result in assay [3] is “inactive”.

`N#CC1=C(N)NC(SCC(=O)c2cc3ccccc3oc2=O)=C(C#N)C1=C1C=CC(=O)C=C1`: the inhibition result in assay [1] and in assay [4] was “Active” in each case. In assay [2], the inhibition entry is “Dose-dependent effect”. Also, the inhibition result in assay [3] is “inactive”.

In the case of `COc1ccc(OC)c(-c2cn3c(CCN(Cc4ccco4)S(=O)(=O)c4ccc5ccccc5c4)csc3n2)c1`, the inhibition result in assay [1] and in assay [4] was “Active” throughout. The inhibition result in assay [2] was “Dose-dependent effect”. Further, the inhibition entry in assay [3] is “inactive”.

Take `CCc1ccc(NS(=O)(=O)c2ccc(N3C(=O)c4cc([N+](=O)[O-])cc5cc([N+](=O)[O-])cc(c45)C3=O)cc2)cc1`: the inhibition entry in assay [1] and in assay [4] was “Active” in each case. For the same compound, the inhibition entry in assay [2] was “Dose-dependent effect”. In addition, in assay [3], the inhibition result is “inactive”.

`CC(=O)c1ccc(-c2ccc(/C=C3\C(=O)NC(=S)N(c4ccc(Br)cc4)C3=O)o2)cc1`: the inhibition entry in assay [1] and in assay [4] was “Active” in each case. Besides, the inhibition result in assay [2] is “Dose-dependent effect”. The inhibition entry in assay [3] was “inactive”.

As for `O=S(=O)(Nc1cc(-c2c(O)ccc3ccccc23)c(O)c2ccccc12)c1ccc(F)cc1`, the inhibition result in assay [1] and in assay [4] was “Active” throughout. Also, the inhibition result in assay [2] was “Dose-dependent effect”. Moreover, the inhibition entry in assay [3] is “inactive”.

With `Cc1ccc(-c2csc3nc(SCc4c(C)noc4C)n(-c4ccccc4)c(=O)c23)o1`, the inhibition result in assay [1] and in assay [4] was “Active” throughout. In assay [2], the inhibition result is “Dose-dependent effect”. The inhibition entry in assay [3] was “inactive”.

With `O=C1NC(=O)N(c2ccc(Br)cc2)C(=O)/C1=C/c1c[nH]c2ccccc12`, the inhibition result in assay [1] and in assay [4] was “Active” in each case. In addition, the inhibition result in assay [2] is “Dose-dependent effect”. In addition, the inhibition entry in assay [3] is “inactive”.
